Experimental data from patent US20100267561A1, “HERBICIDAL PYRIDAZINONE DERIVATIVES” (priority 2007, published 2010).

Tests used:
Assay type in all cases: in vivo
[1] = system: blackgrass (Alopecurus myosuroides); assay: Test C pre-/postemergence plant response; conditions: Preemergence
Procedure, shortened: (§1)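 Seeds are planted and sprayed preemergence, while established plants at the 1- to 4-leaf stage (2 to 18 cm) receive postemergence sprays of the same surfactant-containing, non-phytotoxic solvent formulation. After 15 to 25 days under controlled conditions, injury is scored visually from 0 (no effect) to 100 (complete control).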

[2] = system: canarygrass (Phalaris minor); assay: Test C pre-/postemergence plant response; conditions: Preemergence
Procedure, shortened: as §1

[3] = system: winter barley (Hordeum vulgare); assay: Test C pre-/postemergence plant response; conditions: Preemergence
Procedure, shortened: as §1

[4] = system: Italian ryegrass (Lolium multiflorum); assay: Test C pre-/postemergence plant response; conditions: Preemergence
Procedure, shortened: as §1

[5] = system: spring wheat (Triticum aestivum); assay: Test C pre-/postemergence plant response; conditions: Preemergence
Procedure, shortened: as §1

[6] = system: pigweed (Amaranthus retroflexus); assay: Test C pre-/postemergence plant response; conditions: Preemergence
Procedure, shortened: as §1

[7] = system: green foxtail (Setaria viridis); assay: Test C pre-/postemergence plant response; conditions: Preemergence
Procedure, shortened: as §1

[8] = system: wild mustard (Sinapis arvensis); assay: Test C pre-/postemergence plant response; conditions: Preemergence
Procedure, shortened: as §1

[9] = system: annual bluegrass (Poa annua); assay: Test C pre-/postemergence plant response; conditions: Preemergence
Procedure, shortened: as §1

[10] = system: winter wheat (Triticum aestivum); assay: Test C pre-/postemergence plant response; conditions: Preemergence
Procedure, shortened: as §1

[11] = system: spring barley (Hordeum vulgare); assay: Test C pre-/postemergence plant response; conditions: Preemergence
Procedure, shortened: as §1

[12] = system: downy bromegrass (Bromus tectorum); assay: Test C pre-/postemergence plant response; conditions: Preemergence
Procedure, shortened: as §1

[13] = system: wild oat (Avena fatua); assay: Test C pre-/postemergence plant response; conditions: Preemergence
Procedure, shortened: as §1

[14] = system: windgrass (Apera spica-venti); assay: Test C pre-/postemergence plant response; conditions: Preemergence
Procedure, shortened: as §1

[15] = system: rice (Oryza sativa); assay: Test B flooded paddy test plant response
Procedure, shortened: (§2)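 Paddy-water application to 2-leaf plants in pots held under 3 cm of flooding; response is a 0–100 visual control rating against controls after 13 to 15 days, and a dash marks a missing result.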

[16] = system: ducksalad (Heteranthera limosa); assay: Test B flooded paddy test plant response
Procedure, shortened: as §2

[17] = system: umbrella sedge (Cyperus difformis); assay: Test B flooded paddy test plant response
Procedure, shortened: as §2

[18] = 8 g ai/ha, scale 0 to 100 (0 no effect, 100 complete control)
[19] = 16 g ai/ha, scale 0 to 100 (0 no effect, 100 complete control)
[20] = 31 g ai/ha, scale 0 to 100 (0 no effect, 100 complete control)
[21] = 62 g ai/ha, scale 0 to 100, 0 no effect, 100 complete control
[22] = Flood (flooded paddy test), 62 g ai/ha, scale 0 to 100, 0 no effect, 100 complete control
[23] = Flood (flooded paddy test), 125 g ai/ha, scale 0 to 100, 0 no effect, 100 complete control
[24] = Flood (flooded paddy test), 250 g ai/ha, scale 0 to 100, 0 no effect, 100 complete control
[25] = Flood, 31 g ai/ha, scale 0 to 100

## Cc1cc(-c2ccc(Cl)cc2)nn1-c1c(OC(=O)c2ccccc2)cnn(C)c1=O [Compound 48]
[1]; [18]
  Plant response rating, Blackgrass: 35
[1]; [19]
  Plant response rating, Blackgrass: 50
[1]; [20]
  Plant response rating, Blackgrass: 65
[1]; [21]
  Plant response rating, Blackgrass: 98
[2]; [18]
  Plant response rating, Canarygrass: 0
[2]; [19]
  Plant response rating, Canarygrass: 0
[2]; [20]
  Plant response rating, Canarygrass: 85
[2]; [21]
  Plant response rating, Canarygrass: 95
[3]; [18]
  Plant response rating, Barley, Winter: 0
[3]; [19]
  Plant response rating, Barley, Winter: 0
[3]; [20]
  Plant response rating, Barley, Winter: 0
[3]; [21]
  Plant response rating, Barley, Winter: 70
[4]; [18]
  Plant response rating, Ryegrass, Italian: 40
[4]; [19]
  Plant response rating, Ryegrass, Italian: 40
[4]; [20]
  Plant response rating, Ryegrass, Italian: 90
[4]; [21]
  Plant response rating, Ryegrass, Italian: 100
[5]; [18]
  Plant response rating, Wheat, Spring: 0
[5]; [19]
  Plant response rating, Wheat, Spring: 35
[5]; [20]
  Plant response rating, Wheat, Spring: 60
[5]; [21]
  Plant response rating, Wheat, Spring: 75
[6]; [18]
  Plant response rating, Pigweed: 0
[6]; [19]
  Plant response rating, Pigweed: 0
[6]; [20]
  Plant response rating, Pigweed: 0
[6]; [21]
  Plant response rating, Pigweed: 0
[7]; [18]
  Plant response rating, Foxtail, Green: 35
[7]; [19]
  Plant response rating, Foxtail, Green: 95
[7]; [20]
  Plant response rating, Foxtail, Green: 100
[7]; [21]
  Plant response rating, Foxtail, Green: 100
[8]; [20]
  Plant response rating, Mustard, Wild: 0
[8]; [21]
  Plant response rating, Mustard, Wild: 0
[9]; [18]
  Plant response rating, Bluegrass: 0
[9]; [19]
  Plant response rating, Bluegrass: 0
[9]; [20]
  Plant response rating, Bluegrass: 0
[9]; [21]
  Plant response rating, Bluegrass: 0
[10]; [18]
  Plant response rating, Wheat, Winter: 0
[10]; [19]
  Plant response rating, Wheat, Winter: 0
[10]; [20]
  Plant response rating, Wheat, Winter: 20
[10]; [21]
  Plant response rating, Wheat, Winter: 70
[11]; [18]
  Plant response rating, Barley, Spring: 0
[11]; [19]
  Plant response rating, Barley, Spring: 15
[11]; [20]
  Plant response rating, Barley, Spring: 30
[11]; [21]
  Plant response rating, Barley, Spring: 80
[12]; [18]
  Plant response rating, Bromegrass, Downy: 0
[12]; [19]
  Plant response rating, Bromegrass, Downy: 0
[12]; [20]
  Plant response rating, Bromegrass, Downy: 0
[12]; [21]
  Plant response rating, Bromegrass, Downy: 40
[13]; [18]
  Plant response rating, Oat, Wild: 0
[13]; [19]
  Plant response rating, Oat, Wild: 0
[13]; [20]
  Plant response rating, Oat, Wild: 50
[13]; [21]
  Plant response rating, Oat, Wild: 70
[14]; [18]
  Plant response rating, Windgrass: 0
[14]; [19]
  Plant response rating, Windgrass: 0
[14]; [20]
  Plant response rating, Windgrass: 35
[14]; [21]
  Plant response rating, Windgrass: 80
[15]; [22]
  Plant response rating, Rice: 0
[15]; [23]
  Plant response rating, Rice: 0
[15]; [24]
  Plant response rating, Rice: 0
[15]; [25]
  Plant response rating, Rice: 0
[16]; [22]
  Plant response rating, Ducksalad: 0
[16]; [23]
  Plant response rating, Ducksalad: 0
[16]; [24]
  Plant response rating, Ducksalad: 30
[16]; [25]
  Plant response rating, Ducksalad: 0
[17]; [22]
  Plant response rating, Sedge, Umbrella: 0
[17]; [23]
  Plant response rating, Sedge, Umbrella: 0
[17]; [24]
  Plant response rating, Sedge, Umbrella: 50
[17]; [25]
  Plant response rating, Sedge, Umbrella: 0
